Measurements as given in patent publication US12479845B2, “Imidazopyridine derivative compounds and use of same” (HANMI PHARM. CO., LTD., priority 2019, dated 2025).

How the values were obtained:
LSD1 = LSD1 (Homo sapiens (Human), UniProt O60341); test: Biochemical analysis of LSD1 histone demethylase inhibition (BPS Bioscience LSD1 fluorescence analysis kit, HRP/Amplex Red); conditions: demethylation of Lys4 of histone H3
Description: The biochemical inhibition activity of the synthesized compounds on LSD1 was measured. The activity measurement was performed using LSD1 fluorescence analysis kit (available from BPS Bioscience Co., Ltd., Catalog No: 50106). This analysis kit is designed to measure activity of LSD1 enzyme. H2O2 generated upon demethylation of Lys4 moiety of histone H3 by LSD1 is reacted with HRP/Amplex Red reagent to form fluorescent Resorufin, which is measured by this kit, thereby confirming demethylation.
The results are expressed as an IC50 value. As for a control, GSK2879552 (available from GlaxoSmithKline USA) was used.

NCI-H1417 cells = test: Cell growth suppression test (CellTiter-Glo Luminescent Cell Viability Assay, 10 days treatment); assay type: cell-based; conditions: Homo sapiens, 240 h, treated for 10 days
Description: Cell growth suppression effects of the synthesized compounds on NCI-H1417 cells were identified. The cells were treated with the synthesized compounds for 10 days. Then, in order to test the cell growth suppression, CellTiter-Glo Luminescent Cell Viability Assay (available from Promega, USA) was used. This test is to measure emission signals proportional to the number of ATPs based on a fixed amount of ATPs, which represents the presence of metabolically active cells, thereby determining the number of viable cells. The results are expressed as a Gl50 value. As for a control, GSK2879552 (available from GlaxoSmithKline USA) was used.

SMILES | IC50 (LSD1) [nM] | GI50 (NCI-H1417 cells) [nM]
CO[C@H]1CCN(c2ccc(-n3c(-c4ccc(C#N)c(F)c4)nc4c(N5CCC(N)C5)ccnc43)c(F)c2)C1 (stereo partly drawn) [Example 64, 4-(7-(3-aminopyrrolidine-1-yl)-3-(2-fluoro-4-((S)-3-methoxypyrrolidine-1-yl)phenyl)-3H-imidazo[4,5-b]pyridine-2-yl)-2-fluorobenzonitrile] | 24 | 14
CO[C@H]1CCN(c2ccc(-n3c(-c4ccc(C#N)c(F)c4)nc4c(N5CCCC[C@@H](N)C5)ccnc43)c(F)c2)C1 [Example 67, 4-(7-((R)-3-aminoazepane-1-yl)-3-(2-fluoro-4-((S)-3-methoxypyrrolidine-1-yl)phenyl)-3H-imidazo[4,5-b]pyridine-2-yl)-2-fluorobenzonitrile] | 30 | 2.7
N#Cc1ccc(-c2nc3c(N4CC[C@@H](N)C4)ccnc3n2-c2ccc(C3CC3)cc2)cc1 [Example 2, (R)-4-(7-(3-aminopyrrolidine-1-yl)-3-(4-cyclopropylphenyl)-3H-imidazo[4,5-b]pyridine-2-yl)benzonitrile] | 162 | 40
N#Cc1ccc(-c2nc3c(N4CCC[C@@H](N)C4)ccnc3n2-c2ccc(N3CCCC3)cc2)cc1F [Example 13, (R)-4-(7-(3-aminopiperidine-1-yl)-3-(4-(pyrrolidine-1-yl)phenyl)-3H-imidazo[4,5-b]pyridine-2-yl)-2-fluorobenzonitrile] | 23 | 62
N#Cc1ccc(-c2nc3c(N4CCC[C@@H](N)C4)ccnc3n2-c2ccc(N3CCC(F)(F)C3)cc2F)cc1F [Example 26, (R)-4-(7-(3-aminopiperidine-1-yl)-3-(4-(3,3-difluoropyrrolidine-1-yl)-2-fluorophenyl)-3H-imidazo[4,5-b]pyridine-2-yl)-2-fluorobenzonitrile] | 29 | 26
N#Cc1ccc(-c2nc3c(N4CCC[C@@H](N)C4)ccnc3n2-c2ccc(N3CCCC3)cc2F)cc1F [Example 27, (R)-4-(7-(3-aminopiperidine-1-yl)-3-(2-fluoro-4-(pyrrolidine-1-yl)phenyl)-3H-imidazo[4,5-b]pyridine-2-yl)-2-fluorobenzonitrile] | 37 | 64
CO[C@H]1CCN(c2ccc(-n3c(-c4ccc(C#N)c(F)c4)nc4c(N5CCC[C@@H](N)C5)ccnc43)c(F)c2)C1 [Example 25, 4-(7-((R)-3-aminopiperidine-1-yl)-3-(2-fluoro-4-((S)-3-methoxypyrrolidine-1-yl)phenyl)-3H-imidazo[4,5-b]pyridine-2-yl)-2-fluorobenzonitrile] | 38 | 4.4
